Entries after “also recorded” stand apart in the source; their conditions may differ.
How the values were obtained:
[1] = molecular target: T1, chicken egg white lysozyme (Gallus gallus, UniProt P00698); assay: ITC binding of LAC to negative control protein lysozyme; details: all tested pH conditions (pH 7.0, 6.4, 6.0)
T1 construct: Horse heart muscle myoglobin (Mb), chicken egg white lysozyme, sodium lactate (LAC), and sodium dithionite were purchased from Sigma Aldrich; purchased Sigma Aldrich, St. Louis, MO, USA; host or cells: chicken egg white
Protocol: Horse heart muscle myoglobin (Mb), chicken egg white lysozyme, sodium lactate (LAC), and sodium dithionite were purchased from Sigma Aldrich, St. Louis, MO, USA. All other chemicals used in the experiments are of analytical grade and were also procured from Sigma Aldrich, St. Louis, MO, USA.
Protein-ligand binding experiments were performed using isothermal titration calorimetry (ITC) (Microcal PEAQ-ITC, Malvern, Chester County, PA, USA). Before starting the experiment, both the ligand solution and the protein solution were purged with either O2 or N2 for 10 min. Both the protein and LAC solutions were thermally equilibrated to 25 °C prior to the start of the titration. LAC was loaded in the […] at an initial concentration of 50 µM and titrated against 500 µM of either oxy- or deoxy-Mb solution, maintaining a 1:10 ratio between ligand and protein. To obtain the working c-value between 10 ≤ c ≤ 500 [51], different protein to ligand molar ratios (1:2, 1:5, 1:10, and 1:20) were tested, and based on the c-value, the molar ratio of 1:10 was selected for all ITC binding studies. A total of 19 injections (2 µL each) from the syringe were used to generate the ITC curves within each experiment. During the experimental run, the samples were mixed thoroughly at a constant stirring rate of 750 rpm. Between each injection, a 150 s gap was maintained to achieve a stable baseline. […]

equine deoxy-Mb = molecular target: T2, equine deoxy-Mb (Equus caballus, UniProt P68082); assay: ITC binding of lactate to deoxy-Mb; details: for Kd: n = 5; for c value: c = nKa[M]t; for ΔS°: from ΔG = ΔH − TΔS
T2 construct: Horse heart muscle myoglobin (Mb), chicken egg white lysozyme, sodium lactate (LAC), and sodium dithionite were purchased from Sigma Aldrich; purchased Sigma Aldrich, St. Louis, MO, USA; host or cells: horse heart muscle
Protocol: (§1) Preparations enriched in oxygenated and deoxygenated forms of Mb were prepared as described by our earlier publication related to Mb interaction with fatty acids and acylcarnitines. Briefly, 500 µM of Mb was dissolved in 50 mM sodium phosphate buffer of desired test pH. To promote conversion of ferric (Fe^3+) to ferrous (Fe^2+) iron, 3 mM of sodium dithionite was added to the protein solution with gentle mixing. Thereafter, the solution was subjected to a desalting column to remove the reducing agent and to remove the interference, particularly in O2 release kinetics and UV-Vis spectroscopy absorbance peaks. […] Thereafter, purging the protein solution enriched in oxy- and deoxy-Mb with either O2 or N2 gas, respectively, was performed continuously for 10 min. Formation of oxy- and deoxy-Mb were confirmed based on their characteristic peaks using UV-visible spectroscopy. All the experiments were performed in three different pH conditions (7.0, 6.4, and 6.0), mimicking intracellular physiological and acidic pH states that would be typically observed in skeletal muscle cells in “rested” and “active” (hyperlactatemia) conditions.
(§2) Protein-ligand binding experiments were performed using isothermal titration calorimetry (ITC) (Microcal PEAQ-ITC, Malvern, Chester County, PA, USA). Before starting the experiment, both the ligand solution and the protein solution were purged with either O2 or N2 for 10 min. Both the protein and LAC solutions were thermally equilibrated to 25 °C prior to the start of the titration. LAC was loaded in the […] at an initial concentration of 50 µM and titrated against 500 µM of either oxy- or deoxy-Mb solution, maintaining a 1:10 ratio between ligand and protein. To obtain the working c-value between 10 ≤ c ≤ 500 [51], different protein to ligand molar ratios (1:2, 1:5, 1:10, and 1:20) were tested, and based on the c-value, the molar ratio of 1:10 was selected for all ITC binding studies. A total of 19 injections (2 µL each) from the syringe were used to generate the ITC curves within each experiment. During the experimental run, the samples were mixed thoroughly at a constant stirring rate of 750 rpm. Between each injection, a 150 s gap was maintained to achieve a stable baseline. Data obtained from the ITC experiments were best fit to a one set of binding sites model provided by Microcal PEAQ-ITC software (version 1.40). Heats of dilution and heats caused by potential products formed during the course of the ITC experiments were corrected by performing appropriate blank titrations, consisting of (a) either oxy- or deoxy-Mb in the test buffer solution, (b) test buffer in the LAC, and (c) buffer-buffer solution. Lysozyme was used as a negative control protein in the protein-ligand binding experiments. All the binding experiments were performed 5 times (n = 5) and data obtained from statistical analysis are presented here.
(§3) The change in entropy (ΔS) was calculated using the equation: ΔG = ΔH − TΔS(1) where ΔG represents the change in Gibbs free energy, ΔH is the change in enthalpy, and T is the absolute temperature.
(§4) c values were calculated using the equation:c = nKa[M]t(2) where n is the number of binding sites per receptor (macromolecule), [M]t is macromolecule concentration, and Ka is the association constant.

deoxy-Mb [2] = molecular target: T3, deoxy-Mb (Equus caballus, UniProt P68082); assay: Time-resolved UV-Vis spectroscopy of LAC-incubated deoxy-Mb; parameters: species or system horse; details: data not shown
T3 construct: Horse heart muscle myoglobin (Mb), chicken egg white lysozyme, sodium lactate (LAC), and sodium dithionite were purchased from Sigma Aldrich; purchased Sigma Aldrich, St. Louis, MO, USA; host or cells: horse heart muscle
Protocol: (§5) The change in the spectral characteristics of Mb alone and LAC-bound Mb were recorded using UV-Vis spectroscopy (Polarstar Omega, BMG Labtech, ortenberg, Germany). All the sample preparations and the concentrations used were similar to the ITC experiments. After degassing Mb and LAC samples either with O2 or N2 gas in sealed vials, appropriate volumes of the samples were collected using a Hamilton glass syringe (1cc), mixed in a glass cuvette, and sealed immediately; time-resolved spectra were recorded immediately at 25 °C for a period of 75 min. All spectral data were collected at 5 min time intervals. All the spectral experiments were performed 3 times (n = 3).

oxy-Mb [3] = molecular target: oxy-Mb; parameters: method as in PMID 8663546; details: pH 6.5, spectrophotometric, tonometry; cited from earlier work
oxy-Mb [4] = molecular target: T4, oxy-Mb (Equus caballus, UniProt P68082); assay: Time-resolved UV-Vis spectroscopy of LAC-incubated oxy-Mb; parameters: species or system horse; details: all the test pH conditions
T4 construct: Horse heart muscle myoglobin (Mb), chicken egg white lysozyme, sodium lactate (LAC), and sodium dithionite were purchased from Sigma Aldrich; purchased Sigma Aldrich, St. Louis, MO, USA; host or cells: horse heart muscle
Protocol: as §5

equine oxy-Mb [5] = molecular target: T5, equine oxy-Mb (Equus caballus, UniProt P68082); assay: O2 release kinetics from oxy-Mb (Oxytherm+ respirometer); assay type: biochemical
T5 construct: Horse heart muscle myoglobin (Mb), chicken egg white lysozyme, sodium lactate (LAC), and sodium dithionite were purchased from Sigma Aldrich; purchased Sigma Aldrich, St. Louis, MO, USA; host or cells: horse heart muscle
Protocol: Figure 4 Effect of lactate binding to oxy-Mb and O2 release kinetics. Oxygen kinetics is studied using Oxytherm+ respirometer. All experiments were performed with 50 mM sodium phosphate buffer (pH 7.0, pH 6.4, and pH 6.0) containing 150 µM equine oxy-Mb and varying concentrations of lactate (0.625 mM to 2.5 mM) and oxy-Mb alone as a control. (a) A representative graph showing addition of lactate eliciting a rapid release of O2 from oxy-Mb at pH 6.4. Arrows in the figure indicate the point of addition of oxy-Mb and LAC into buffer during the run. (b) Rate of release of O2 from Mb against lactate concentrations with buffers (pH 7.0, pH 6.4, and pH 6.0). […] All O2 kinetic experiments were repeated 3 times (n = 3). Statistical analysis was performed using one-way ANOVA and the Tukey–Kramer post hoc test. […] Among all the test groups, only statistically […] groups are shown with horizontal lines and two asterisks.
The O2 concentrations (release and binding) during the ligand interactions with Mb in the solution were measured using Oxytherm+ liquid-phase oxygen electrode system (Hansatech Instruments, Norfolk, UK). The Oxytherm+ respirometer is an advanced instrument routinely used for respiration studies.
The measurement of dissolved O2 is calculated at the given temperature and atmospheric pressure according to the following equation [64]: Cs = 14.16 − (0.394 × T) + (0.007714 × T^2) − (0.0000646 × […])(3) where Cs is the saturated O2 concentration in ppm and T is the temperature in °C.
1 ppm is equivalent to 1 µg/mL or (1 µg/32 g/mol) = 0.03125 µmol/mL or 31.25 nmol/mL.
Similarly, deoxy-Mb protein alone (i.e., without LAC) was also tested. All the experiments were carried out at a constant temperature of 25 °C using a Peltier thermostat. The solutions were mixed at 50 rpm using a small magnetic stirring bar placed inside the sample container. Samples were injected into the buffer solution (50 mM sodium phosphate) at varying pH levels (pH 6.0–7.0) using a Hamilton glass syringe (1cc) after achieving equilibrium. Ligand was added to the Mb protein. Appropriate buffer controls voiding either Mb or LAC were used to nullify any artefacts. O2 kinetic experiments were also performed. All the kinetic experiments were performed 3 times (n = 3) and data obtained from statistical analysis are presented here.

deoxy-Mb [6] = molecular target: deoxy-Mb; parameters: method as in PMID 8663546; details: pH 6.5, spectrophotometric, tonometry; cited from earlier work
equine oxy-Mb [7] = molecular target: T5, equine oxy-Mb; assay: ITC binding of lactate to oxy-Mb; details: for Kd: n = 5; for c value: c = nKa[M]t; for ΔS°: from ΔG = ΔH − TΔS
Protocol: as §1, §2, §3, §4

[8] = pH 6.4, 25 °C, listed as lactate

T5 sequence (P68082 whole entry): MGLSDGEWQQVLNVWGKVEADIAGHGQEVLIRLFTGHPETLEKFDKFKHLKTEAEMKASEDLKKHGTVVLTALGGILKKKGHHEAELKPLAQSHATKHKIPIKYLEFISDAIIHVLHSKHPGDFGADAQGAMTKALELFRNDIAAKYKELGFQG
T2 sequence (P68082 whole entry): as above
T1 sequence (P00698 19-147): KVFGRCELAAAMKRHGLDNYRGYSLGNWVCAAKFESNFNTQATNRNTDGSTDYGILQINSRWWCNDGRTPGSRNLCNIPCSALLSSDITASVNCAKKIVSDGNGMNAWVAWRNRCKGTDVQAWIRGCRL
T4 sequence (P68082 whole entry): as the sequence (P68082 whole entry) above
T3 sequence (P68082 whole entry): as above

No. of binding sites (equine deoxy-Mb; pH 6.0): 0.8 ± 0.02 ^a2
ΔH° (equine deoxy-Mb; pH 6.0): 12.6 ± 0.4 ^d3 kcal mol^−1
Kd (equine deoxy-Mb; pH 6.0, 25 °C): 6.4 ± 0.2 µM
c value (equine deoxy-Mb; pH 6.0): 61.2 ± 0.9 ^b1
ΔS° (equine deoxy-Mb; pH 6.0): 0.1 ± 0.0 ^d3 cal mol^−1 K^−1
No. of binding sites (equine deoxy-Mb; pH 6.4): 0.8 ± 0.03 ^a1
ΔH° (equine deoxy-Mb; pH 6.4): 149.5 ± 13.0 ^b1 kcal mol^−1
Kd (equine deoxy-Mb; pH 6.4, 25 °C): ~14 µM
Kd (equine deoxy-Mb; [8]): 13.7 ± 1.6 µM
c value (equine deoxy-Mb; pH 6.4): 30.4 ± 4.6 ^c1
ΔS° (equine deoxy-Mb; pH 6.4): 0.55 ± 0.03 ^b1 cal mol^−1 K^−1
Ka at pH 6.4 relative to pH 6.0 (equine deoxy-Mb; pH 6.4 vs pH 6.0): ~ 2 fold
binding of LAC (ITC) (equine deoxy-Mb; pH 7.0): No detectable binding
No. of binding sites (equine deoxy-Mb; pH 7.0, NDB: no detectable binding): NDB
change in UV-Vis spectral data (oxy-Mb [4]): no change in spectral data
O2 release compared to oxy-Mb alone (equine oxy-Mb [5]; 0.625 mM LAC, pH 6.0): no significance difference
maximum rate of O2 release (equine oxy-Mb [5]; 2.5 mM LAC, pH 6.4 buffer, 25 °C): 72 nmol/min/g protein
O2 release rate constant (equine oxy-Mb [5]; pH 6.0): 0.04 mM LAC/nM O2 release
O2 release rate constant (equine oxy-Mb [5]; pH 6.4): 0.029 mM LAC/nM O2 release
O2 release rate constant (equine oxy-Mb [5]; pH 7.0): 0.537 mM LAC/nM O2 release
No. of binding sites (equine oxy-Mb [7]; pH 6.0): 1.0 ± 0.06 ^a2
ΔH° (equine oxy-Mb [7]; pH 6.0): 34 ± 3.5 ^c2 kcal mol^−1
Kd (equine oxy-Mb [7]; pH 6.0, 25 °C): 1.9 ± 0.2 µM
ΔG (equine oxy-Mb [7]; pH 6.0, printed as Mb+LAC complex): -7.8 kcal/mol
c value (equine oxy-Mb [7]; pH 6.0): 267.9 ± 30.4 ^d2
ΔS° (equine oxy-Mb [7]; pH 6.0): 0.14 ± 0.01 ^c2 cal mol^−1 K^−1
No. of binding sites (equine oxy-Mb [7]; pH 6.4): 0.8 ± 0.03 ^a1
ΔH° (equine oxy-Mb [7]; pH 6.4): 151.5 ± 18.5 ^b1 kcal mol^−1
Kd (equine oxy-Mb [7]; pH 6.4, 25 °C): ~7 µM
Kd (equine oxy-Mb [7]; [8]): 6.9 ± 1.1 µM
ΔG (equine oxy-Mb [7]; pH 6.4, oxy-Mb+LAC complex): -6.9 kcal/mol
c value (equine oxy-Mb [7]; pH 6.4): 67.5 ± 15.5 ^b1
ΔS° (equine oxy-Mb [7]; pH 6.4): 0.5 ± 0.06 ^b1 cal mol^−1 K^−1
Ka (equine oxy-Mb [7]; pH 7.0): 0.05 µM⁻¹
No. of binding sites (equine oxy-Mb [7]; pH 7.0): 0.9 ± 0.7 ^b*
ΔG (equine oxy-Mb [7]; pH 7.0): -6.2 kcal/mol
ΔH° (equine oxy-Mb [7]; pH 7.0): −53.1 ± 0.3 ^a* kcal mol^−1
Kd (equine oxy-Mb [7]; pH 7.0, 25 °C): 20.7 ± 2.7 µM
c value (equine oxy-Mb [7]; pH 7.0): 22.4 ± 1.4 ^a
ΔS° (equine oxy-Mb [7]; pH 7.0): −0.15 ± 0.01 ^a* cal mol^−1 K^−1
increase of Ka with drop in pH (equine oxy-Mb [7]; pH 7.0 to pH 6.0): ~ 3 fold
SMILES: CC(O)C(=O)[O-].[Na+] (stereo not drawn) [LAC, sodium lactate]
binding of LAC (ITC) [1]: no detectable binding; also recorded: did not bound
change in UV-Vis spectral data (deoxy-Mb [2]): marginal changes in the heme peak absorbance (435 nm)
Kd (oxy-Mb [3]): 26000 µM
Kd (deoxy-Mb [6]): 2500 µM
